Paper PMC11087051, “Large-scale deorphanization of Nematostella vectensis neuropeptide G protein-coupled receptors supports the independent expansion of bilaterian and cnidarian peptidergic systems” (eLife, 2024)
Residues, ends and D or L forms follow the SMILES beside them. No end group written: not given here.

Tests used:
[1] = Maximal solubility of the synthetic peptides in water and in DMSO (sheet Peptide_mixes); format: physicochemical; conditions: for max solve (DMSO): in DMSO, number in brackets in the cell; for max solve water: in water, number before the bracket in the cell
Excerpt: Supplement elife-90674-supp3.xlsx, sheet "Peptide_mixes"

[2] = tested on: QITRFa.R196 (R196, GPR196); assay: GPCR deorphanization dose-response assay (HEK293, G5A luminescence); format: cell-based, Nematostella vectensis; conditions: drc fit
Procedure: (§1) To experimentally identify Nematostella neuropeptide GPCRs, we tested our selection of 161 N. vectensis GPCRs in a pharmacological assay for activation by peptides from our peptide library (Figure 3A, Supplementary files 3 and 8). We expressed the candidate GPCRs in mammalian cells, together with a promiscuous Gqi protein and a luminescent G5A reporter (Figure 3A, Supplementary file 7). The peptides were separated into different mixes (Supplementary file 3), which were then tested on each GPCR (Supplementary file 4). Receptor-mix combinations that gave a positive signal were further resolved by testing the individual peptides of the mix to identify the activating ligand (Supplementary file 4). […]
(§2) A detailed step-by-step protocol has been published in [Thiel et al., 2023]. […] For each well, 10 µl OptiMEM (without FBS), 70 ng of GPCR containing plasmid, 70 ng of Gqi5/9 plasmid, 10–20 ng of G5A plasmid (to increase luminescence values of our HEK293 cell line), and 0.45–0.48 µl T5000/PEI were mixed and incubated for 20 min at room temperature. […] Readings were performed with a FlexStation 3 Multi-mode Microplate reader (Molecular Devices), for a period of 60 s per well, ligand injection after 15–18 s, and the whole plate was read with the Flex option. […] The readout data for the final dose-response curves is provided in Supplementary file 9 and as .csv files in the repository in the data folder. […]

QGRFa.R070 (R70, GPR70) = assay: as above; format: cell-based, Nematostella vectensis; conditions: drc fit
Procedure: as §1, §2

| Compound | max solve (DMSO) [1] | max solve water [1] | Slope of the dose-response curve [2] | Slope of the dose-response curve (QGRFa.R070 (R70, GPR70)) |
| --- | --- | --- | --- | --- |
| C[C@@H](O)[C@H](NC(=O)[C@H](Cc1c[nH]cn1)NC(=O)[C@H](Cc1ccccc1)NC(=O)[C@H](Cc1ccc(O)cc1)NC(=O)[C@@H]1CCCN1C(=O)[C@@H]1CCC(=O)N1)C(=O)N[C@@H](CC(=O)O)C(=O)N[C@@H](CC(N)=O)C(=O)N[C@@H](CO)C(=O)N1CCC[C@H]1C(=O)N[C@@H](CC(N)=O)C(=O)N[C@@H](CCCNC(=N)N)C(=O)N[C@@H](Cc1ccccc1)C(N)=O [NRFa] (HELM PEPTIDE1{[Glp].P.Y.F.H.T.D.N.S.P.N.R.F.[am]}$$$$V2.0) | 5 (5) mg/ml | 5 (5) mg/ml | – | – |
| CSCC[C@H](NC(=O)[C@H](CC(N)=O)NC(=O)[C@@H]1CCCN1C(=O)[C@H](CCSC)NC(=O)[C@@H]1CCC(=O)N1)C(=O)N[C@H](C(=O)N1CCC[C@H]1C(=O)N[C@@H](Cc1ccccc1)C(=O)N[C@@H](Cc1c[nH]cn1)C(N)=O)C(C)C [PFHa] (HELM PEPTIDE1{[Glp].M.P.N.M.V.P.F.H.[am]}$$$$V2.0) | 10 mg/mL | 0 mg/mL | – | – |
| N=C(N)NCCC[C@H](NC(=O)[C@@H]1CCCN1C(=O)CN)C(=O)NCC(N)=O [PRGa] (H-GPRG-NH2) | 10 (10) mg/ml | 10 (10) mg/ml | – | – |
| N=C(N)NCCC[C@H](NC(=O)CNC(=O)[C@@H]1CCC(=O)N1)C(=O)N[C@@H](Cc1ccccc1)C(N)=O [QGRFa] (HELM PEPTIDE1{[Glp].G.R.F.[am]}$$$$V2.0) | 10 mg/mL | 5 mg/mL | – | – |
| CC[C@H](C)[C@H](NC(=O)[C@@H]1CCC(=O)N1)C(=O)N[C@H](C(=O)N[C@@H](CCCNC(=N)N)C(=O)N[C@@H](Cc1ccccc1)C(N)=O)[C@@H](C)O [RFa0] (HELM PEPTIDE1{[Glp].I.T.R.F.[am]}$$$$V2.0) | 5 (5) mg/ml | 5 (5) mg/ml | – | – |
| N=C(N)NCCC[C@H](NC(=O)CNC(=O)[C@H](CCC(N)=O)NC(=O)[C@H](CC(=O)O)NC(=O)[C@H](CCC(=O)O)NC(=O)[C@H](CCCNC(=N)N)NC(=O)CNC(=O)[C@H](Cc1ccccc1)NC(=O)[C@H](CCCNC(=N)N)NC(=O)CNC(=O)[C@@H]1CCC(=O)N1)C(=O)N[C@@H](Cc1ccccc1)C(N)=O [RFa1] (HELM PEPTIDE1{[Glp].G.R.F.G.R.E.D.Q.G.R.F.[am]}$$$$V2.0) | 10 mg/mL | 5 mg/mL | – | – |
| CC[C@H](C)[C@H](NC(=O)[C@H](CC[S+](C)[O-])NC(=O)[C@@H]1CCCN1C(=O)[C@@H]1CCCN1C(=O)CN)C(=O)N[C@@H](CCCCN)C(=O)N[C@H](C(=O)N1CCC[C@H]1C(=O)N[C@H](C(=O)N[C@@H](CCCNC(=N)N)C(=O)N[C@@H](Cc1c[nH]cn1)C(N)=O)C(C)C)[C@@H](C)CC (stereo partly shown) [RHa2] (HELM PEPTIDE1{G.P.P.[CS(=O)CC[C@H](N[*:1])C(=O)[*:2]].I.K.I.P.V.R.H.[am]}$$$$V2.0) | 10 mg/mL | 5 mg/mL | – | – |
| CC(C)C[C@H](NC(=O)[C@H](Cc1ccc(O)cc1)NC(=O)[C@@H]1CCC(=O)N1)C(=O)N[C@@H](CC(=O)O)C(=O)N1CCC[C@H]1C(=O)N[C@@H](CCCNC(=N)N)C(=O)N1CCC[C@H]1C(N)=O [RHa5] (HELM PEPTIDE1{[Glp].Y.L.D.P.R.P.[am]}$$$$V2.0) | 15 mg/mL | 10 mg/mL | – | – |
| CC(C)C[C@H](NC(=O)[C@H](Cc1ccccc1)NC(=O)[C@H](C)NC(=O)[C@H](CC(=O)O)NC(=O)[C@@H]1CCC(=O)N1)C(=O)N1CCC[C@H]1C(=O)N[C@@H](CCCCN)C(=O)N1CCC[C@H]1C(=O)N[C@@H](CCCNC(=N)N)C(=O)N1CCC[C@H]1C(N)=O [RPa1] (HELM PEPTIDE1{[Glp].D.A.F.L.P.K.P.R.P.[am]}$$$$V2.0) | 10 (10) mg/ml | 10 (10) mg/ml | – | – |
| CC[C@H](C)[C@H](NC(=O)[C@@H]1CCCN1C(=O)[C@@H](NC(=O)[C@H](CCCNC(=N)N)NC(=O)[C@H](Cc1ccccc1)NC(=O)[C@@H]1CCCN1C(=O)[C@@H]1CCCN1C(=O)[C@@H]1CCC(=O)N1)[C@@H](C)CC)C(N)=O [pIPIa] (HELM PEPTIDE1{[Glp].P.P.F.R.I.P.I.[am]}$$$$V2.0) | 10 mg/mL | 0 mg/mL | – | – |
| APGLW-NH2 [GLWa4] | 10 (10) mg/ml | 10 (10) mg/ml | – | – |
| APPGNGEGEAGFIPWFS-NH2 [WFSa] | 2 mg/mL | 0 mg/mL | – | – |
| APRGGRDAPRG-NH2 [PRGa5] | 10 (10) mg/ml | 10 (10) mg/ml | – | – |
| APRGGRSLLDLLAAPRG-NH2 [PRGa1] | 10 (10) mg/ml | 10 (10) mg/ml | – | – |
| DSSPPQW [QW2] | 10 mg/mL | 5 mg/mL | – | – |
| EIQPGNMKVWSDPF [PNX14] | 10 mg/mL | 5 mg/mL | – | – |
| FPPGFHRP-NH2 [HRPa] | 10 mg/mL | 5 mg/mL | – | – |
| GPPGLW-NH2 [GLWa3] | 10 mg/mL | 5 mg/mL | – | – |
| GPPMIKIPVRH-NH2 [VRHa] | 10 (10) mg/ml | 10 (10) mg/ml | – | – |
| GPPPIYLPVRP-NH2 [RHa3] | 10 (10) mg/ml | 10 (10) mg/ml | – | – |
| GPPQGLRW-NH2 [LRWa3] | 5 (5) mg/ml | 5 (5) mg/ml | – | – |
| GPRGGRATEFGPRG-NH2 [PRGa3] | 10 (10) mg/ml | 10 (10) mg/ml | – | – |

| Compound | max solve (DMSO) [1] | max solve water [1] | Slope of the dose-response curve [2] | Slope of the dose-response curve (QGRFa.R070 (R70, GPR70)) |
| --- | --- | --- | --- | --- |
| GPRGGREVNLEGPRG-NH2 [PRGa2] | 5 (5) mg/ml | 5 (5) mg/ml | – | – |
| GPRGGRSYDGPRG-NH2 [PRGa4] | 10 mg/mL | 5 mg/mL | – | – |
| GYYRDNIQETRQYLDPRP-NH2 [RHa4] | 10 mg/mL | 5 mg/mL | – | – |
| IPPQGFRFSQW-NH2 [QWa] | 10 mg/mL | 0 mg/mL | – | – |
| IPPQGLRFNQW-NH2 [QWa2] | 10 mg/mL | 5 mg/mL | – | – |
| KGIKQEEIQPGNMKVWSDPF [PNX20] | 10 mg/mL | 5 mg/mL | – | – |
| LPPRFGGQI-NH2 [QIa] | 10 mg/mL | 5 mg/mL | – | – |
| MPEQDANPQTRFD-NH2 [RFa2] | 10 mg/mL | 5 mg/mL | – | – |
| NPPIDLGPAYFHIR-NH2 [HIRa5] | 10 mg/mL | 5 mg/mL | – | – |
| NPPQPPFRIPI-NH2 [IPIa] | 10 mg/mL | 5 mg/mL | – | – |
| QPGNMKVWSDPF [PNX12] | 5 mg/mL | 0 mg/mL | – | – |
| RSNRVVIHTGANPTMAPLRIPF-NH2 [IPFa] | 10 mg/mL | 5 mg/mL | – | – |
| SPKPPGLW-NH2 [GLWa5] | 10 (10) mg/ml | 10 (10) mg/ml | – | – |
| SPPQWKLDSSPPQW [QW3] | 10 mg/mL | 5 mg/mL | – | – |
| SPWSCSLRP-NH2 [LRPa1] | 10 (10) mg/ml | 10 (10) mg/ml | – | – |
| SPWSYSLRP-NH2 [LRPa2] | 10 (10) mg/ml | 10 (10) mg/ml | – | – |
| TPPQW [QW1] | 10 mg/mL | 2 mg/mL | – | – |
| TPPSNI-NH2 [SNIa] | 5 mg/mL | 2 mg/mL | – | – |
| WPPRP-NH2 [FRPa1] | 10 (10) mg/ml | 10 (10) mg/ml | – | – |
| YPPFLELGQPSYFHIR-NH2 [HIRa2] | 10 mg/mL | 5 mg/mL | – | – |
| YPPLNTV-NH2 [NTVa] | 10 mg/mL | 5 mg/mL | – | – |
| pyrQITRFamide [synthetic N. vectensis RFamide neuropeptide pyrQITRFamide] | – | – | -0.6635 | -1.343 |
